Type in all cases: biochemical
Experiment [1] has as its system Norepinephrine uptake (crude synaptosomal preparation). Put plainly: Uptake of 3H-norepinephrine in crude synaptosomal preparations of rat hypothalamus and striatum. The note with it: [3H]1-norepinephrine, rat hypothalamus/striatum synaptosomes, 5 min preincubation, 3 min incubation, 37° C. minus 0° C. uptake; read-out: IC50 (Molar) for Inhibition of Biogenic Amine Uptake, Norepinephrine. The method, then: (§1) Activity Studies Uptake of ^3 H-Biogenic Amines in Crude Synaptosomal Preparations of Rat Hypothalamus and Striatum.
(§2) A 0.5 mL aliquot of a crude synaptosomal preparation prepared according to the technique of Ferris et al., J. Pharm. Exp. Ther., 181, 407 (1972) and Patrick et al., J. Pharm. Exp. Ther., 241, 152 (1987) was incubated in a standard incubation medium containing 10 μM iproniazid, 1 μM ascorbate and […] of either [^3 H]dopamine, [^3 H]1-norepinephrine or [^3 H]serotonin. Final volumes were 3 mL.
(§3) All incubations were conducted for 3 minutes under an atmosphere of 95% O2 -5% CO2. The uptake at 0° C. and 37° C. was determined in each experiment and the difference between the two determinations represented the accumulation of [^3 H]amine by the temperature-dependent uptake process. Test compounds were dissolved in the standard incubation medium and preincubated with the crude synaptosomal preparation for 5 mintes, before the addition of the labeled substrate.
(§4) Reactions were stopped by the addition of 2 mL of ice-cold 0.32M sucrose containing 25 mM Tris buffer, pH 7.4, and rapid cooling in an ice-bath. Samples were centrifuged at 49,600×g for 10 minutes. The resulting pellet was washed with 5 mL of 0.9% saline and again centrifuged. […] A 1 mL aliquot of the supernatant was taken for determination of radioactivity.

In experiment [2] the test system is Serotonin uptake (crude synaptosomal preparation). Put plainly: Uptake of 3H-serotonin in crude synaptosomal preparations of rat hypothalamus and striatum. Conditions: rat hypothalamus/striatum synaptosomes, 5 min preincubation, 3 min incubation, 37° C. minus 0° C. uptake, read-out: IC50 (Molar) for Inhibition of Biogenic Amine Uptake, Serotonin. The procedure:
as §1, §2, §3, §4

The subject of experiment [3] is Dopamine uptake (crude synaptosomal preparation). Put plainly: Uptake of 3H-dopamine in crude synaptosomal preparations of rat hypothalamus and striatum. The note with it: at 10^-5 (Molar by title), rat synaptosomes, mean of triplicate assay with S.E.M. < ±5%. The procedure: as §1, §2, §3, §4

The IC50 is the concentration at which inhibition is half-maximal. For the molecule “5-Chloro-2-((2-((methylamino)methyl)phenyl)thio)benzyl Alcohol [Example 5]”, the half-inhibitory concentration (IC50) amounted to 110 nM in experiment [1] and 21 nM in experiment [2]. Moreover, the “Percent inhibition of Dopamine uptake” value in experiment [3] is on record as 38%.
For `CN(C)Cc1ccccc1Sc1ccc(Cl)cc1CO.Cl` [Example 2, 5-chloro-2-((2-((dimethylamino)methyl)phenyl)thio)benzyl alcohol hydrochloride], in that order: 55 nM, 2.1 nM and 15%.

The record behind these values is US5104897A, “Medical uses of halogen substituted diphenylsulfides” (Burroughs Wellcome Co., priority 1989, dated 1992).
